# How the values were obtained:
# [1] = test system: Blood-Retinal Barrier Breakdown in Streptozotocin-Induced Diabetic Macular Edema; test: Evans blue leakage (blood-retinal barrier breakdown) in streptozotocin-induced diabetic macular edema; assay type: in vivo, Sprague-Dawley female rats
# Description: After a 16-hour fast, Sprague-Dawley female rats weighing 200-220 g received a single 60 mg/kg intraperitoneal injection of Streptozotocin (STZ; Sigma-Aldrich, St. Louis, Md.) in 10 mM sodium citrate buffer (pH 4.5; Sigma-Aldrich, St. Louis, Md.). Control rats were fasted and received the buffer alone. Rats with blood glucose levels higher than 375 mg/dL 7 days after receiving STZ were considered to be diabetic. Body weight and blood glucose were detected every week. All experiments were performed in accordance with regulations specified by the Guide for the Care and Handling of Laboratory Animals (NIH Publication no. 85-23). For the treatments, rats were instilled with 0.5% and 1% COMPOUND I eye drops. Both eyes of all rats were instilled with 1 drop of ophthalmic solution 3 times a day for 6 weeks after diabetes production. Rats were treated with 0.5% and 1% COMPOUND I or vehicle solution eye drops 3 times a day for […] after glucose levels determination. Animal care and treatment were followed by the institutional guidelines. After induction of general anesthesia, the right jugular vein and right iliac artery were cannulated with 0.28- and 0.58-mm internal diameter polyethylene tubing, respectively, which were filled with heparinized saline (50 IU heparin/ml saline). Evans blue (Sigma-Aldrich, St. Louis, Md.) was injected through the jugular vein over 10 seconds at a dosage of 45 mg/kg. Immediately after Evans blue infusion, the rats turned visibly blue, confirming their uptake and distribution of the dye. Subsequently, at 15-minute intervals, 0.1 ml blood was drawn from the iliac artery for 2 hours to obtain the time-averaged plasma Evans blue concentration. After the dye had circulated for 120 minutes, the chest cavity was opened, and rats were perfused for 2 minutes via the left ventricle at 37° C. with 0.05 M, pH 3.5, citrate-buffered paraformaldehyde (Sigma-Aldrich, St. Louis, Md.). A pH of 3.5 was used to optimize binding of Evans blue to albumin and the perfusion solution was warmed to 37° C. to prevent vasoconstriction. Immediately after perfusion, both eyes were enucleated and dissected at the equator. The retinas were carefully dissected away under an operating microscope and thoroughly dried in vacuum equipment for 5 hours. The dry weight was used to normalize the quantitation of Evans blue leakage. Evans blue was extracted by incubating each retina in […] formamide (Sigma-Aldrich. St. Louis. Md.) for 18 hours at 70° C. […] The background-subtracted absorbance was determined by measuring each sample at both 620 nm, the absorbance maximum for Evans blue in formamide, and 740 nm, the absorbance minimum. The concentration of dye in the extracts was calculated from a standard curve of Evans blue in formamide. […]
# ARPE-19 cells = test: H2O2-induced injury in ARPE-19 cells (MTT); assay type: cell-based, human; details: 3 μg/ml and 10 μg/ml; 400, M and 600 μM H2O2; 24 h
# Description: (§1) MTT assay was used to measure the viability of ARPE-19 cells and HUVECs. 2×10^5 ARPE-19 cells or 5×10^4 HUVECs were seeded in 96-well plates ([…]) and allowed to grow overnight. Negative control was prepared by adding 100 μl medium without cells. The cells were then treated with fresh medium with COMPOUND I (0.03, 0.1, 0.3, 1, 3 and 10 μg/ml) and/or oxidants (NaIO3, H2O2, t-BHP and NaN3) for 12, 24, or 72 hours (200 μl/well). The vehicle control group was treated with vehicle. 20 μl MTT (5 mg/ml) was added to wells, and incubated for another 4 h. After incubation, the medium was discarded and 100 μl DMSO was added to solubilize formazan produced from MTT by the viable cells. Absorbance was measured at 570 nm using a microplate reader (Bio-Rad Laboratories, Inc., CA). Cells viability was calculated according to the following formula: Viability of cells (%)=(absorbance in tested sample−absorbance in negative control)/(absorbance in vehicle control−absorbance in negative control)×100%.
# [2] = Hypoxia-induced injury in HUVECs (MTT); assay type: cell-based; details: human, 1% O2, read-out: decrease of viability in hypoxic condition
# Description: as §1
# Cells were allowed to attach overnight, and then exposed to COMPOUND I or vehicle under hypoxic condition for 72 h. Hypoxic conditions (1% O2, 5% CO2 and 94% N2) were maintained by using a temperature and humidity controlled environmental C-chamber by O2 and CO2 controllers (Proox Model 110 and Pro CO2 model 120, Biospherix Ltd., Redfield, N.Y., USA) with N2 and CO2 gas sources.
smiles,measurement,setting,value
COc1ccc(COc2c(/C=C/C(=O)NO)ccc(OC)c2CC=C(C)C)cc1 [COMPOUND I],"Evans blue leakage, diabetic vehicle control group as 100%",[1]; 0.5% eye drops 3 times a day,68%
same,"Evans blue leakage, in words",[1]; 0.5% eye drops 3 times a day,partially
same,"Evans blue leakage, diabetic vehicle control group as 100%",[1]; 1% eye drops 3 times a day,56%
same,"Evans blue leakage / BRB breakdown, in words","[1]; 1% eye drops 3 times a day, listed as BMX",completely restored
same,effect on H2O2-induced injuries,ARPE-19 cells,reversed
same,"cytotoxicity at 72 h, 10 μg/ml",[2],98%

# Reference: patent US11045435B2, “Methods for treating ocular diseases” (NATUREWISE BIOTECH & MEDICALS CORPORATION, priority 2016, dated 2021)
